Experimental data: PMC6299481, “Deciphering the Evolution of Cephalosporin Resistance to Ceftolozane-Tazobactam in Pseudomonas aeruginosa” (mBio, 2018)
Like-named read-outs stand apart in the source and are kept apart here.

Columns and labels:
[1] = tested on: E. coli DH10B pBC SK blaPDC-3 E221K; assay: MIC, MH agar dilution (CLSI); type: cell-based, Escherichia coli; conditions: for MIC: Escherichia coli
Procedure: (§1) Variant genes were synthesized into the pBC SK (-) vector by Celtek Bioscience (Franklin, TN). Mueller-Hinton (MH) agar-dilution MIC measurements were performed against isogenic transformants producing PDC-3 and nine variants of PDC-3 in pBC SK (-) according to the Clinical and Laboratory Standards Institute (CLSI) guidelines as previously described ([39], [48]). Avibactam, LP-06, and S02030 were tested at a constant 4 µg/ml in combination with various concentrations of ceftazidime. Piperacillin-tazobactam was maintained at a ratio of 8 piperacillin to 1 tazobactam. Ceftolozane-tazobactam was maintained at a ratio of 2 ceftolozane to 1 tazobactam. The MICs are reported as the concentrations at which bacterial growth was no longer observed. All MIC measurements were performed at least three times.

[2] = tested on: P. aeruginosa 18SH; assay: MIC, MH agar dilution (CLSI); type: cell-based; conditions: Pseudomonas aeruginosa, β-lactam alone, control strain expressing PDC-3
Procedure: as §1

[3] = tested on: E. coli DH10B pBC SK; assay: MIC, MH agar dilution (CLSI); type: cell-based; conditions: Escherichia coli, DH10BPBCSK, β-lactam alone
Procedure: as §1

[4] = tested on: E. coli DH10B; assay: MIC, MH agar dilution (CLSI); type: cell-based; conditions: Escherichia coli, β-lactam alone
Procedure: as §1

[5] = tested on: E. coli DH10B pBC SK blaPDC-3 Y223A; assay: MIC, MH agar dilution (CLSI); type: cell-based; conditions: Escherichia coli, β-lactam alone
Procedure: as §1

[6] = tested on: E. coli DH10B pBC SK blaPDC-3 Y223H; assay: MIC, MH agar dilution (CLSI); type: cell-based; conditions: Escherichia coli, β-lactam alone
Procedure: as §1

[7] = tested on: E. coli DH10B pBC SK blaPDC-3 G216R; assay: MIC, MH agar dilution (CLSI); type: cell-based; conditions: Escherichia coli, β-lactam alone
Procedure: as §1

[8] = tested on: P. aeruginosa PAO1; assay: MIC, MH agar dilution (CLSI); type: cell-based; conditions: Pseudomonas aeruginosa; β-lactam alone; P. aeruginosa PAO1, control strain expressing PDC-1
Procedure: as §1

[9] = tested on: E. coli DH10B pBC SK blaPDC-1; assay: MIC, MH agar dilution (CLSI); type: cell-based; conditions: Escherichia coli, β-lactam alone
Procedure: as §1

[10] = tested on: E. coli DH10B pBC SK blaPDC-3 E221G; assay: MIC, MH agar dilution (CLSI); type: cell-based; conditions: Escherichia coli, β-lactam alone
Procedure: as §1

[11] = tested on: E. coli DH10B pBC SK blaPDC-3; assay: MIC, MH agar dilution (CLSI); type: cell-based; conditions: Escherichia coli
Procedure: as §1

[12] = tested on: E. coli DH10B pBC SK blaPDC-3 V213A; assay: MIC, MH agar dilution (CLSI); type: cell-based; conditions: Escherichia coli, β-lactam alone
Procedure: as §1

[13] = tested on: E. coli DH10B pBC SK blaPDC-3 V213G; assay: MIC, MH agar dilution (CLSI); type: cell-based; conditions: Escherichia coli, β-lactam alone
Procedure: as §1

[14] = tested on: E. coli DH10B pBC SK blaPDC-3 E221A; assay: MIC, MH agar dilution (CLSI); type: cell-based; conditions: Escherichia coli; β-lactam alone; E. coli DH10B pBC SK blaPDC-3 E221A (Table 2 prints E221)
Procedure: as §1

[15] = tested on: E. coli DH10B pBC SK blaPDC-3 G216A; assay: MIC, MH agar dilution (CLSI); type: cell-based; conditions: Escherichia coli; β-lactam alone; E. coli DH10B pBC SK blaPDC-3 G216A (Table 2 prints G216)
Procedure: as §1

[16] = molecular target: T1, PDC-3 β-lactamase (Pseudomonas aeruginosa, UniProt P24735, T105A); assay: Competitive inhibition assay with nitrocefin as reporter substrate (Ki app); type: biochemical
T1 construct: produces the corresponding PDC-3 protein without its signal peptide; made in house; host or cells: E. coli Origami 2 DE3, pET24a (+) blaPDC-3
Procedure: For competitive inhibition assays used to determine Ki app, 150 μM nitrocefin was used as the reporter substrate with increasing concentrations of ceftazidime or ceftolozane. Initial velocities were plotted against concentrations of ceftazidime or ceftolozane. Ki app obs were determined by dividing the slope by the y intercept. Ki app was calculated by correcting Ki app obs for nitrocefin affinity and concentration (equation 3). (3) Ki app=Ki app obs/[1+([NCF]/Km NCF)

[17] = tested on: E. coli DH10B strains expressing PDC-3 variants; assay: MIC, MH agar dilution (CLSI), variant strains taken together; type: cell-based, Escherichia coli
Procedure: as §1

[18] = molecular target: T2, E221K variant of PDC-3 β-lactamase (Pseudomonas aeruginosa, UniProt P24735, E247K/T105A); assay: Steady-state hydrolysis kinetics; type: biochemical; conditions: substrate hydrolysis by E221K; 10 mM PBS pH 7.4, room temperature
T2 construct: produces the corresponding PDC-3 protein without its signal peptide; made in house; host or cells: E. coli Origami 2 DE3, pET24a (+) blaPDC-3-E221K
Procedure: Steady-state kinetic and inhibitor parameters were determined by using an Agilent 8453 diode array spectrophotometer at room temperature as previously described ([20], [43], [49]). Each assay was performed in 10 mM phosphate-buffered saline (PBS) at pH 7.4 at room temperature (RT = ∼25°C) in a quartz cuvette with a 1-cm path length. Measurements were obtained using ceftolozane and ceftazidime. The kinetic parameters, Vmax and Km, were obtained with a nonlinear least-squares fit of the data (Henri Michaelis-Menten, equation 1) using Origin 7.5VR (OriginLab, Northampton, MA).(1) v=Vmax [S]/Km+[S]

[19] = read-out: MIC value, β-lactam alone, E. coli DH10B pBC SK blaPDC-3
[20] = β-lactam alone, E. coli DH10B pBC SK blaPDC-3 E221K, read-out: MIC value
[21] = β-lactam alone, E. coli DH10B pBC SK blaPDC-3, read-out: MIC value

| SMILES | MIC ([1]; read-out: MIC value) [µg/mL] | MIC [2] [µg/mL] | MIC [3] [µg/mL] | MIC [4] [µg/mL] | MIC [5] [µg/mL] | MIC [6] [µg/mL] | MIC [7] [µg/mL] | MIC [8] [µg/mL] | MIC [9] [µg/mL] | MIC [10] [µg/mL] | MIC [11, 19] [µg/mL] | MIC [12] [µg/mL] | MIC [13] [µg/mL] | MIC [14] [µg/mL] | MIC [15] [µg/mL] | also measured |
| --- | --- | --- | --- | --- | --- | --- | --- | --- | --- | --- | --- | --- | --- | --- | --- | --- |
| CO/N=C(\C(=O)N[C@@H]1C(=O)N2C(C(=O)[O-])=C(C[N+]3(C)CCCC3)CS[C@H]12)c1csc(N)n1 [Cefepime] | 0.25 | 128 | < 0.06 | 0.125 | 0.25 | 0.125 | 0.25 | 4 | 0.125 | 0.125 | ≤ 0.06 | 0.125 | 0.125 | 0.125 | 0.125 |  |
| CO/N=C(\C(=O)N[C@@H]1C(=O)N2C(C(=O)O)=C(COC(C)=O)CS[C@H]12)c1csc(N)n1 [Cefotaxime] | 4 | > 256 | < 0.06 | < 0.06 | 16 | 8 | 16 | 16 | 8 | 8 | 8 | 16 | 16 | 16 | 8 |  |
| C[C@H]1[C@H](NC(=O)/C(=N\OC(C)(C)C(=O)O)c2csc(N)n2)C(=O)N1S(=O)(=O)O [Aztreonam] | 8 | 128 | 0.125 | 0.125 | 4 | 4 | 16 | 4 | 0.5 | 4 | 1 | 8 | 8 | 4 | 8 |  |
| Cn1c(N)c(NC(=O)NCCN)c[n+]1CC1=C(C(=O)O)N2C(=O)[C@@H](NC(=O)/C(=N\OC(C)(C)C(=O)[O-])c3nsc(N)n3)[C@H]2SC1 [Ceftolozane] | 64 | 8 | 0.5 | 0.5 | 32 | 8 | 8 | 0.5 | 0.5 | 16 | 0.5 | 4 | 4 | 2 | 2 | fold increase in MIC relative to the wild-type strain ([1]; E221K variant strain versus PDC-3 strain, E. coli DH10B): 128 fold; MIC ([1]; read-out: ceftolozane MIC): 64 µM; MIC ([11]; read-out: ceftolozane MIC, PDC-3 strain, Table 2): 0.5 µM; Ki ([16]; 150 μM nitrocefin reporter substrate): 1300 µM; fold difference in Ki app between ceftolozane and ceftazidime ([16]; ceftolozane Ki app higher than ceftazidime Ki app): 60 fold; MICs when paired with avibactam ([17]; oxyimino cephalosporin paired with avibactam): ≤ 1 mg/L; Km [18]: 341 ± 64 µM; Vmax [18]: 1.0 ± 0.1 µM/s; kcat [18]: 10 ± 1 s⁻¹ |
| CCN1CCN(C(=O)N[C@@H](C(=O)N[C@@H]2C(=O)N3[C@@H]2SC(C)(C)[C@@H]3C(=O)O)c2ccccc2)C(=O)C1=O [Piperacillin] |  | 512 | 2 | 2 | 16 | 32 | 16 | 4 | 16 | 64 |  | 64 | 64 | 128 | 64 | MIC [1, 20]: 16 µg/mL; MIC [11, 21]: 16 µg/mL |
| CC1(C)S[C@@H]2[C@H](NC(=O)[C@H](N)c3ccccc3)C(=O)N2[C@H]1C(=O)O [Ampicillin] |  | 4100 | 4 | 4 | 256 | 512 | 1020 | 2050 | 256 | 512 |  | 1020 | 1020 | 1020 | 1020 | MIC [1, 20]: 256 µg/mL; MIC [11, 21]: 256 µg/mL |
| C[C@]1(Cn2ccnn2)[C@H](C(=O)O)N2C(=O)C[C@H]2S1(=O)=O [tazobactam] |  |  |  |  |  |  |  |  |  |  |  |  |  |  |  | fold attenuation of variant strain MICs compared to single antibiotic ([17]; piperacillin-tazobactam and ceftolozane-tazobactam combinations): 2- to 8 fold |
| C[C@@H](O)[C@H]1C(=O)N2C(C(=O)O)=C(SCCN=CN)C[C@H]12 [Imipenem] | 0.5 | 2 | 0.25 |  | 0.5 | 0.5 | 0.5 | 2 | 0.25 | 0.5 | 0.25 | 0.5 | 0.5 | 0.5 | 0.5 |  |
